ChEMBL document CHEMBL1131246, “Design, synthesis, and biological evaluation of a second generation of pyrazolo[4,3-e]-1,2,4-triazolo[1,5-c]pyrimidines as potent and selective A2A adenosine receptor antagonists” (J Med Chem, 1998)

Assays:
Adenosine receptor A1 [1] = biological target: T1, Adenosine receptor A1 (Homo sapiens, UniProt P30542); assay: Displacement of [3H]CHA from human Adenosine A1 receptor expressed in CHO cells; assay type: cell-based
T1 sequence (P30542 whole entry): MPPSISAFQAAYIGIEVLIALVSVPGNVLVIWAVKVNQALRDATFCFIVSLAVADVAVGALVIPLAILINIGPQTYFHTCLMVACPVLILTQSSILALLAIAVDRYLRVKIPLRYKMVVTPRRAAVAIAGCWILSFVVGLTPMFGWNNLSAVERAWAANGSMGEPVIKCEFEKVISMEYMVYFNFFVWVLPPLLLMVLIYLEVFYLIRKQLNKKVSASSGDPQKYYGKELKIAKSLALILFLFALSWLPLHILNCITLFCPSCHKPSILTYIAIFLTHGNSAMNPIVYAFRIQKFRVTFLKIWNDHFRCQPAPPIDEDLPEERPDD

Adenosine receptor A2a [2] = biological target: T2, Adenosine receptor A2a (Homo sapiens, UniProt P29274); assay: Displacement of [3H]-SCH- 58261 from human Adenosine A2A receptor expressed in CHO cells; assay type: cell-based
T2 sequence (P29274 whole entry): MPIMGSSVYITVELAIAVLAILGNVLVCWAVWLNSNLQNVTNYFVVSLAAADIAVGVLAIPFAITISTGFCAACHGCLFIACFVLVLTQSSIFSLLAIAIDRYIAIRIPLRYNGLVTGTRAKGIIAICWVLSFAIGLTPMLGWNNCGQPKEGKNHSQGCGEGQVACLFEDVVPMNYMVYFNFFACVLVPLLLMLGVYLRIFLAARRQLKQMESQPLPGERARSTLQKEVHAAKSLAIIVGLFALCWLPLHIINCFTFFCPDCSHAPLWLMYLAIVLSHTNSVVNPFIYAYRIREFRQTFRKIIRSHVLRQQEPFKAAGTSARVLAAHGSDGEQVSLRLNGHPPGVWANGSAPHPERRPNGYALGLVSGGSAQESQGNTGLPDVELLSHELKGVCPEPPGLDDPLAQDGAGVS

Adenosine receptor A2a [3] = biological target: T2, Adenosine receptor A2a; assay: Inhibition of 1 uM NECA-stimulated cyclic AMP levels in human platelets; assay type: functional
[4] = Selectivity for human A3 adenosine receptor and rat A2A adenosine receptor
Adenosine receptor A1 [5] = biological target: T3, Adenosine receptor A1 (Rattus norvegicus, UniProt P25099)
T3 sequence (P25099 whole entry): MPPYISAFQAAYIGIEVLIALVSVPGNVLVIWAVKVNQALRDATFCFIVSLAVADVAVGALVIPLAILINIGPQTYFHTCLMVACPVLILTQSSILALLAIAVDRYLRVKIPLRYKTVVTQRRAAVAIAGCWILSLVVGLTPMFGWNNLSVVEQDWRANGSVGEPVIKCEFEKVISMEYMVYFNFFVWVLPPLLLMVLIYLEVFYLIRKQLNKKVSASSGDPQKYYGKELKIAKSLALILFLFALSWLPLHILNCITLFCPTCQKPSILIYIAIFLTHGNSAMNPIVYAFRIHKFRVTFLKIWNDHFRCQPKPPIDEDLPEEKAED
Description: Displacement of [3H]CHA from rat cortical membrane Adenosine A1 receptor. Parenthesis indicate 95% confidence limit.

Adenosine receptor A2a [6] = biological target: Adenosine receptor A2a (Rattus norvegicus, UniProt P30543)
Chain of Adenosine receptor A2a (Rattus norvegicus, UniProt P30543) (P30543 whole entry): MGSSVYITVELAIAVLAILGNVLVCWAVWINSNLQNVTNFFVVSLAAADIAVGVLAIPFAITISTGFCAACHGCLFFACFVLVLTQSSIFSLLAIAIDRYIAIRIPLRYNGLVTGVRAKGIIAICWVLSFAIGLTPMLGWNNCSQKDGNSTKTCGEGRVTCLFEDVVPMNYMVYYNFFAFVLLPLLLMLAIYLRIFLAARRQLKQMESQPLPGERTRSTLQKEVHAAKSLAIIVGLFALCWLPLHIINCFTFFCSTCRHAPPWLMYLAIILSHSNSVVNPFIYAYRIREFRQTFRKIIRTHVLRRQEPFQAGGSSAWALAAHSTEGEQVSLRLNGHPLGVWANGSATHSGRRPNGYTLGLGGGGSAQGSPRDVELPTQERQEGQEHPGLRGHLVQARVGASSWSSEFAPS

Adenosine receptor A3 [7] = biological target: T4, Adenosine receptor A3 (Homo sapiens, UniProt P0DMS8); assay: biochemical
T4 sequence (P0DMS8 whole entry): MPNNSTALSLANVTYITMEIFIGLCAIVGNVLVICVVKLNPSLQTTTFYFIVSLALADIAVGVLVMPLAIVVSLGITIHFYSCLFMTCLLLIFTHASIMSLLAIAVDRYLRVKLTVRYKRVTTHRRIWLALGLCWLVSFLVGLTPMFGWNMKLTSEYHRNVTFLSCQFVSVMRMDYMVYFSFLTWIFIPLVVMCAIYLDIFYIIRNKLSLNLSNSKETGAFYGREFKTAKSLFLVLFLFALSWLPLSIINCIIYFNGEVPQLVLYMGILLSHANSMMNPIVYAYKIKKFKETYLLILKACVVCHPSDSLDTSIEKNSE
Description: (§1) Displacement of [125I]AB-MECA from human Adenosine A3 receptor expressed in HEK293 cells

Adenosine receptor A3 [8] = biological target: T4, Adenosine receptor A3; assay: biochemical; remark: listed apart in the source
Description: as §1

Row | Structure (SMILES) | Ki (Adenosine receptor A1 [1]) [nM] | Ki (Adenosine receptor A2a [2]) [nM] | IC50 (Adenosine receptor A2a [3]) [nM] | Selectivity [4] | Ki (Adenosine receptor A1 [5]) [nM] | Ki (Adenosine receptor A2a [6]) [nM] | Ki (Adenosine receptor A3 [7]) [nM] | Ki (Adenosine receptor A3 [8]) [nM]
1 | Nc1nc2c(cnn2CCCc2ccc3c(c2)OCO3)c2nc(-c3ccco3)nn12 | 2170 | 3.3 | 8 | > 2630 | 1840 | 3.8 | > 10000 | > 10000
2 | Nc1nc2c(cnn2CCc2ccc(OCc3ccccc3)cc2)c2nc(-c3ccco3)nn12 |  |  | 90 | > 169 | > 10000 | 59 | > 10000 | 
3 | Nc1nc2ccc(Cl)cc2c2nc(-c3ccco3)nn12 [CGS-15943] |  |  |  |  |  | 0.95 | 14 | 
4 | Nc1nc2c(cnn2Cc2ccc(OCc3ccccc3)cc2)c2nc(-c3ccco3)nn12 |  |  | 500 | > 40 | 9450 | 246 | > 10000 | 
5 | Nc1nc2c(cnn2CCc2ccc(O)cc2)c2nc(-c3ccco3)nn12 |  |  | 14 | > 5880 | 444 | 1.7 | > 10000 | 
6 | Nc1nc2c(cnn2CCCc2ccc(OCc3ccccc3)cc2)c2nc(-c3ccco3)nn12 |  |  | 300 | > 222 | 1460 | 45 | > 10000 | 
7 | Nc1nc2c(cnn2CCCc2ccccc2)c2nc(-c3ccco3)nn12 [SCH-63390] |  |  |  |  |  |  | > 10000 | 
8 | Nc1nc2c(cnn2CCc2ccccc2)c2nc(-c3ccco3)nn12 [SCH-58261] |  |  |  |  |  |  | > 10000 | 
9 | Nc1nc2c(cnn2CCCc2ccc(O)cc2)c2nc(-c3ccco3)nn12 | 253 | 1.5 | 10 | > 10600 | 741 | 0.94 | > 10000 | > 10000
10 | COc1ccc(CCCn2ncc3c2nc(N)n2nc(-c4ccco4)nc32)cc1OC | 1650 | 2.7 | 20 | > 1890 | 2830 | 5.3 | > 10000 | > 10000
11 | Nc1nc2c(cnn2CCCc2ccc(O)c(O)c2)c2nc(-c3ccco3)nn12 |  |  | 60 | > 204 | 2250 | 49 | > 10000 | 
12 | Nc1nc2c(cnn2Cc2ccc(O)cc2)c2nc(-c3ccco3)nn12 |  |  | 149 | > 188 | 13400 | 53 | > 10000 | 
